Source: patent US20110288101A1, “SURGICAL CO[…]-RECEPTOR AGONISTS” (ALCON RESEARCH, LTD., priority 2010, published 2011)

Tested on: rabbit corneal endothelial cells
Experiment: MTS cell viability assay, protection against hydrogen peroxide oxidative stress
Assay type: cell-based
Conditions: rabbit corneal endothelial cells in serum-free medium; 70 μM H2O2; 24 hours; 1 to 300 μM (+)-pentazocine; p<0.05 vs H2O2 control; FIG. 1
Method: Studies were performed to determine whether (+)-pentazocine can protect corneal endothelial cells. Hydrogen peroxide was employed to produce oxidative stress to rabbit corneal endothelial cells in vitro.
Briefly, rabbit corneal endothelial cells maintained in serum-free medium were treated with the sigma-1 receptor agonist (+)-pentazocine and 70 μM H2O2 for 24 hours. At the end point, a cell viability assay (MTS assay) is performed. The MTS assay is a laboratory test and standard colorimetric assay for measuring the activity of enzymes that reduce MTS+PMS to formazan, producing a purple color. MTS (3-(4,5-dimethylthiazol-2-yl)-5-(3-carboxymethoxyphenyl)-2-(4-sulfophenyl)-2H-tetrazolium), in the presence of phenazine methosulfate (PMS), produces a water-soluble formazan product that has an absorbance maximum at 490-500 nm in phosphate-buffered saline. These reduction reactions take place only when reductase enzymes are active, and the production of formazan product is therefore used as a measure of cell viability.
Lower absorbance numbers correlate to reduced cell viability.

CC(C)=CCN1CCC2(C)c3cc(O)ccc3CC1C2C (single isomer, unassigned; (+)) [(+)-pentazocine]
protection of cell viability (MTS absorbance) against damage induced by hydrogen peroxide: dose-dependent protection
